Results from patent US11607422B2, “Uttroside B and derivatives thereof as therapeutics for hepatocellular carcinoma” (Rajiv Gandhi Centre for Biotechnology, an Autonomous …, priority 2016, dated 2023).
pIC50: −log10 of the molar value.

Experiments:
[1] = system: HeLa; experiment: MTT cell viability assay in HeLa cells; format: cell-based; details: 72 h
Method: (§1) FIG. 2A is a graph comparison of IC50 of Uttroside B in a panel of cancer cells of different origin. The cancer cell lines HeLa, A375, HepG2, MDA-MB-231, HL 60, A549 and HCT116 were treated with Uttroside B as indicated, incubated for 72 h and the cell viability was assessed by MTT assay. FIG. 2B is a graph showing dose dependent effect of Uttroside B in the liver cancer cell lines and in normal immortalized hepatocytes. The liver cancer cell lines HepG2, Hep3B, SKHEP-1, Huh-7 and normal hepatocytes (Chang liver), were treated with Uttroside B incubated for 72 h and the cell viability was assessed by MTT assay. FIG. 2C is a graph comparison of IC50 of Uttroside B with sorafenib. HepG2 cells were treated with Uttroside B as indicated, incubated for 72 h, and the cell viability was assessed by MTT assay. […] The clones developed were counted and plotted as a graph. Colony containing more than four cells was counted as one clone. […]
(§2) MTT [3-(4,5-dimethylthiazole-2-yl)-2,5-diphenyltetrazolium bromide] assay is a standard colorimetric assay, suitable for analyzing proliferation, viability, and cytotoxicity. […] After overnight incubation, cells were treated with different concentrations of organic extracts (25-250 μg/ml) of S. nigrum and the isolated compound Uttroside B (250-1250 nM) for 72 h and cytotoxicity was measured. […]

[2] = system: hepatocellular carcinoma cells (HepG2, Hep3B, SKHep1, and Huh-7); experiment: MTT assay in different hepatocellular carcinoma cells; format: cell-based; details: SKHep1, Huh-7, 72 h, read-out: IC50 in liver cancer cells
Method: as §1, §2

[3] = system: NF-κB in HepG2 cells; experiment: Electrophoretic mobility shift assay of NF-κB; format: cell-based, human; details: HepG2 nuclear extract, EMSA
Method: Stocks of crude extracts and isolated compound of S. nigrum was prepared in DMSO for the in vitro studies and stored at −20° C. The DMSO concentration in all studies, including controls, was ≤0.2%. Cell viability assay was performed after 72 h of drug treatment while whole cell lysate preparation and cell cycle analysis were done after 24 h and 48 h of drug treatment. For studying NF-κB and AP-1, Uttroside B was incubated for 2 h before extraction.
Radiolabeling of oligonucleotide probes for electrophoretic mobility shift assay:HepG2 Cells were treated with Uttroside B for two hours, scraped and suspended in 150 μL of lysis buffer (10 mM HEPES(pH 7.9), 10 mM KCl, 0.1 mM EDTA, 0.1 mM EGTA, 1 mM DTT, 0.5 mMphenylmethylsulfonyl fluoride, 2 μg/mL leupeptin, 2 μg/mL aprotinin, 0.5 mg/ml benzamidine) for 30 min, after which 4.5 μl of 10% Nonidet P-40 was added. […]

[4] = system: Swiss albino mice; experiment: Chronic toxicity study (3 months); format: in vivo
Method: Swiss albino mice were randomly divided into 2 groups of 6 animals each and were allowed to acclimatize for a week. Group I received vehicle and Group II received 10 mg/Kg body weight of Uttroside B. The compounds were given as intraperitonial injection on alternate days, thrice in a week, for 3 months. The animals were observed frequently during this period after which, the animals were euthanized in a CO2 chamber. The blood serum was collected for analyzing biochemical parameters of liver function, the abnormal values of which are indicative of hepatotoxicity. The liver was fixed in 10% buffered formalin and the thin cryostat sections were stained with haematoxylin and eosin for histopathological evaluation.^9

In the case of C[C@H](CC[C@@]1(O)O[C@H]2C[C@H]3[C@@H]4CC[C@H]5C[C@@H](O[C@@H]6O[C@H](CO)[C@H](O[C@@H]7O[C@H](CO)[C@@H](O)[C@H](O[C@@H]8OC[C@@H](O)[C@H](O)[C@H]8O)[C@H]7O[C@@H]7O[C@H](CO)[C@@H](O)[C@H](O)[C@H]7O)[C@H](O)[C@H]6O)CC[C@]5(C)[C@H]4CC[C@]3(C)[C@H]2[C@@H]1C)CO[C@@H]1O[C@H](CO)[C@@H](O)[C@H](O)[C@H]1O [Uttroside B], the pIC50 [1] was 5.82, the pIC50 [2] was 6.22 to 6.40 and the “constitutive activation of NF-κB” value [3] was “could not produce any significant down-regulation”. The “histopathological analysis of liver tissue, chronic” value ([4]; 10 mg/kg) was “did not manifest any morphological change characteristic of toxicity” and the “total and differential WBC count, serum AST, ALT, ALP and BUN” value ([4]; 10 mg/kg i.p. thrice weekly, 3 months) was “no significant difference in any of these parameters from their normal range of values”.
